Common to all, as to assay: growth of human tumour cells (NCI), 48 h
Assay [1] concerns NCI/ADR-RES.
For assay [2], the system named is SW-620.
Assay [3] has as its system ACHN.
In assay [4] the test system is OVCAR-3.
Assay [5] has as its system K562.
The subject of assay [6] is SK-MEL-5.
Assay [7] relates to SK-MEL-2.
Assay [8] deals with SNB-19.
The test system of assay [9] is HOP-92.
In assay [10] the test system is MOLT-4.
For assay [11], the system named is TK-10.
For assay [12], the system named is CCRF-CEM.
Assay [13] has as its system HCC 2998.
For assay [14], the system named is UACC-257.
Assay [15] relates to U-251.
Assay [16] relates to HCT-116.
For assay [17], the system named is 786-0.
The test system of assay [18] is NCI-H23.
Assay [19] has as its system NCI-H522.
For assay [20], the system named is Malme-3M.

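1) Cells in 96-well plates. 2) Compound, 48 h, 5 concentrations. 3) Linear interpolation between surrounding doses. 4) Unreached endpoint = highest concentration. GI50 = concentration required for 50% inhibition of growth.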 Active and inactive are the calls of the source. Rule as the data show it: active = GI50 up to about 1.1 µM and inactive = higher.

On to `CN1C(=O)[C@@H]2[C@@H]3c4ccccc4N(S(=O)(=O)C(F)(F)F)[C@@H]3c3[nH]c4ccccc4c3[C@@H]2C1=O`, for which the GI50 in assay [1] is 26.3 µM (inactive); in assay [2], > 100 µM (inactive); in assay [3], 25.1 µM (inactive); in [4], 22.6 µM (inactive); in assay [5], 7.28 µM (inactive); in assay [6] it was 36.4 µM (inactive). Also, the GI50 in [7] was 81.5 µM (inactive); in assay [8] it was > 100 µM (inactive); in [9], 1.63 µM (inactive); in assay [10], 4.3 µM (inactive); in assay [11] it was 47.8 µM (inactive); in assay [12], 25.2 µM (inactive). The GI50 in [13] was > 100 µM (inactive); in [14], 62.5 µM (inactive); in assay [15], 31.3 µM (inactive); in assay [16], 17.2 µM (inactive); in [17], 63.7 µM (inactive); in assay [18], 54.1 µM (inactive).

As to `OCCN1c2ccccc2Sc2ccccc21`, the GI50 in [1], in assay [2], in assay [19], in assay [3], in assay [4] and in [5] was > 10 µM (inactive) in each case. In addition, the GI50 in assay [6], in assay [8], in [9], in [10], in assay [11] and in assay [13] was > 10 µM (inactive) in each case. The GI50 in assay [14], in assay [15], in assay [16], in assay [17], in assay [20] and in assay [18] was > 10 µM (inactive) each time.

On to `CC(C)c1oc(=O)cc2c1C(O)C1OC(=O)C3(C)C(O)C4OC4C2(C)C13` (stereo unspecified) [NAGILACTONE], for which the GI50 in [1] was 12.9 µM (inactive); in assay [2], 1.45 µM (inactive); in assay [19] it was 1.15 µM (inactive); in assay [4], 1.41 µM (inactive); in assay [5] it was 1.01 µM (active); in assay [6], 0.628 µM (active). Further, the GI50 is 2.16 µM (inactive) in assay [7]; 0.573 µM (active) in assay [8]; 0.7 µM (active) in assay [9]; 0.83 µM (active) in assay [10]; 0.817 µM (active) in assay [12]; 1.86 µM (inactive) in assay [13]. Also, the GI50 in assay [14] is 1.83 µM (inactive); in assay [15] it was 1.58 µM (inactive); in assay [16], 1.09 µM (active); in assay [20], 1.69 µM (inactive); in assay [18], 1.36 µM (inactive).

On to `OCC1OC(n2cnc3c2NC=NC[C@H]3O)C(O)C1O` (stereo partly specified), for which the GI50 was > 436 µM (inactive) in [1]; 317 µM (inactive) in assay [2]; 312 µM (inactive) in [19]; > 450 µM (inactive) in assay [4]; 249 µM (inactive) in [5]; > 71.3 µM (inactive) in assay [6]. Moreover, the GI50 in assay [7] was 339 µM (inactive); in assay [8] it was > 450 µM (inactive); in assay [9], > 192 µM (inactive); in [10], 318 µM (inactive); in assay [12], 172 µM (inactive); in [13] it was > 330 µM (inactive). Also, the GI50 in assay [14] was > 450 µM (inactive); in [15], > 450 µM (inactive); in [16] it was 260 µM (inactive); in [20] it was > 355 µM (inactive); in [18], 445 µM (inactive).

On to `CC(=O)OCc1ccc(-c2nc(C#N)c(N)o2)o1`, for which the GI50 in [1], in assay [2], in [19], in assay [3], in assay [5] and in assay [6] was > 10 µM (inactive) each time. In addition, the GI50 in [8], in assay [9], in assay [10], in [11], in assay [12] and in assay [13] was > 10 µM (inactive) throughout. Also, the GI50 in assay [14], in assay [16], in assay [17], in assay [20] and in assay [18] was > 10 µM (inactive) throughout.

For the molecule `CCc1ccc(COC(=O)C2=C(C)NC(C)=C(C(=O)OCc3ccc(CC)cn3)C2C2=COCCO2)nc1`, the GI50 in assay [1] was 22 µM (inactive); in [2], 27.8 µM (inactive); in assay [19], 19.5 µM (inactive); in assay [3] it was 25.2 µM (inactive); in assay [4], 19.7 µM (inactive); in assay [5], 18.2 µM (inactive). For the same molecule, the GI50 in assay [6] was 13.3 µM (inactive); in [8] it was 18.8 µM (inactive); in assay [9] it was 20.7 µM (inactive); in assay [10], 12.6 µM (inactive); in [11], 33.7 µM (inactive); in assay [12] it was 16.2 µM (inactive). Besides, the GI50 in assay [13] is 19.9 µM (inactive); in assay [14] it was 20.5 µM (inactive); in assay [15] it was 17.5 µM (inactive); in [16], 16.3 µM (inactive); in [17], 23.2 µM (inactive); in [18], 20 µM (inactive).

Turning to `CN(C)/N=N/c1ccc(NC=O)cc1`, the GI50 in [1] was > 100 µM (inactive); in assay [2], > 100 µM (inactive); in assay [3], > 100 µM (inactive); in assay [4], > 100 µM (inactive); in assay [5], 43.3 µM (inactive); in assay [6], > 100 µM (inactive). For the same molecule, the GI50 in [7] was > 100 µM (inactive); in assay [8] it was > 100 µM (inactive); in assay [9], > 100 µM (inactive); in [10], 55.8 µM (inactive); in [11] it was > 100 µM (inactive); in assay [12] it was 40.7 µM (inactive). The GI50 in assay [13], in assay [14], in assay [15], in assay [16] and in assay [17] was > 100 µM (inactive) in each case.

Turning to `O=c1c2ccccc2ncn1COCc1ccccc1`, the GI50 in [1], in [2], in [3], in [4], in [5] and in [6] was > 100 µM (inactive) throughout. Moreover, the GI50 in [7], in assay [8], in assay [9], in assay [10], in assay [11] and in assay [12] was > 100 µM (inactive) in each case. The GI50 in [13], in assay [14], in assay [15], in assay [16] and in assay [17] was > 100 µM (inactive) in each case.

Turning to `C=C[C@@](C)(/C=C/c1ccc(O)cc1)CCC=C(C)C` [BAKUCHIOL], the GI50 in [1] is 16.2 µM (inactive); in assay [2], 17 µM (inactive); in assay [19] it was 17.1 µM (inactive); in [3], 10.6 µM (inactive); in assay [4] it was 18.3 µM (inactive); in [5], 15.7 µM (inactive). Further, the GI50 in [6] was 16 µM (inactive); in [7], 22 µM (inactive); in assay [8], 19.1 µM (inactive); in [9], 16.5 µM (inactive); in [10] it was 13.1 µM (inactive); in [11], 17.1 µM (inactive). Also, the GI50 in assay [12] is 14.8 µM (inactive); in assay [13], 20.6 µM (inactive); in [14], 17.7 µM (inactive); in [15] it was 16.9 µM (inactive); in [16], 18.1 µM (inactive); in [18], 16.7 µM (inactive).

Take `O=C(NCCCl)O/N=C/c1cccnc1`: the GI50 in [1], in assay [2], in assay [19], in assay [4], in [5] and in [6] was > 100 µM (inactive) each time. Moreover, the GI50 in [7], in assay [8], in assay [9], in assay [10], in assay [12] and in assay [13] was > 100 µM (inactive) each time. Further, the GI50 in assay [14], in assay [15], in [16] and in assay [18] was > 100 µM (inactive) in each case.

`Cc1ccc2c(O)cc(-c3sccc3C)nc2n1`: the GI50 was 0.326 µM (active) in assay [1]; 0.264 µM (active) in assay [2]; 0.296 µM (active) in assay [19]; 1.1 µM (active) in [3]; 0.653 µM (active) in [4]; 0.427 µM (active) in assay [5]. Besides, the GI50 in assay [6] is 0.266 µM (active); in [8], 0.78 µM (active); in assay [9] it was > 36.8 µM (inactive); in assay [10] it was 0.486 µM (active); in assay [11], > 24.2 µM (inactive); in assay [12] it was 0.635 µM (active). In addition, the GI50 in [13] is 1.02 µM (active); in [15], 0.832 µM (active); in assay [16] it was 0.452 µM (active); in [17], 0.711 µM (active); in [20] it was 0.463 µM (active); in assay [18], 0.337 µM (active).

These data come from ChEMBL document CHEMBL1201862, “PubChem BioAssay data set” (2004).
